Test results published in patent US20250129329A1, “CULTURE MEDIUM FOR HEPATOMA ORGANOID CULTURE, HEPATOMA ORGANOID CULTURE METHOD, AND APPLICATION THEREOF” (PRECEDO PHARMACEUTICALS CO., LTD, priority 2021, published 2025).

Assays:
Assay type in all cases: cell-based, human
[1] = system: hepatoma organoids (sample GL-006); test: Drug screening on hepatoma organoids, CellTiter-Glo viability and microscopy (Example 5); conditions: for growth of organoids after drug treatment (photos): after 5 days of drug treatment, microscope photos, FIG. 5A; for inhibitory effect on the growth of hepatoma organoids (drug inhibition rate): two concentrations (1 and 0.1 mM stocks diluted 1000 times), 5 days, CellTiter-Glo, FIG. 5B
Protocol: Primary liver cancer cells were isolated from liver cancer intraoperative sample (GL-006) according to the method described in Section (2), Example 1, and were cultured to obtain organoids by using HC-3 culture medium until the diameters of hepatoma organoids exceeded 50 μm, which were then used for drug screening.
Prepare Three drugs with two concentration gradients were prepared according to the table below (Bortezomib, Aclarubicin, and Doxorubicin; all purchased from MCE) and store for use.
The prepared drugs were taken out and placed at room temperature. The drugs were diluted 1000 times with HC-3 culture medium for later use. The organoids cultured and obtained according to step (1) were taken out from the incubator, the culture mediums were removed from the wells, and the culture mediums containing drugs were slowly added into the wells along the well wall. After the addition of drug, disinfect the surface of the 96-well plate was sterilized and then was transferred to the incubator for further cultivation. After 5 days, the viability of organoids were measured.
CellTiter-Glo luminescent reagent (purchased from Promega) was taken out from a 4° C. refrigerator, and 10 mL of the reagent was added into the loading slot; the 96-well plate for testing was taken out from the incubator, and 20 μL CellTiter-Glo luminescent reagent was added into each well. After standing for 10 minutes followed by mixing well, the test was conducted by using a multi-functional microplate reader (Envision, Perkin Elmer).

[2] = system: hepatoma organoids isolated from liver cancer tissue; test: Effects of medium additives on proliferation of hepatoma organoids (Example 1); conditions: additive in basic medium at the final concentration; organoid diameters after 7 days compared with Basic Medium
Protocol: First, a basic medium containing initial medium was prepared. […] In this embodiment, the formulation of the basic medium is: DMEM/F12 medium (purchased from Corning)+100 μg/mL Primocin (purchased from InvivoGen, 0.2% (v/v), commercial product has a concentration of 50 mg/ml).
Different types of additives (see Table 1) were added to the basic medium to prepare culture mediums for hepatoma organoid with different components.
Tissue samples (intraoperative) of liver cancer solid tumor were obtained from patients by professional medical practitioner of professional medical institutions, and all patients have signed the informed consent. Intraoperative samples having the size of 0.25 cm3 were stored and transported using commercial tissue preservation solution (manufacturer: Miltenyi Biotec).
• 3.1. Tissue samples were transferred from the ultra-clean workbench to a culture dish, and the tissue with blood was removed. The tissue samples were rinsed twice with basic medium, and then were transferred to another culture dish and mechanically cut with a sterile scalpel into tissue blocks of 1×1×1 mm3 in size. • 3.2. The cut intraoperative tissues were aspirated into a 15 mL centrifuge tube, to which 5 mL of basic medium was added, fully mixed, and then centrifuged at 1500 rpm for 4 minutes. • 3.3. The supernatant was discarded, and the resultant was added with 1:3 mixture of basic medium and tissue digestion solution (the amount of tissue digestion solution added was about 10 mL tissue digestion solution for 1 g of tumor tissue). The samples were marked with names and numbers, sealed with sealing film, and then digested in a shaker (Zhichu Instrument ZQLY-180N) at 37° C., 300 rpm. The completion of digestion was determined via observation every 30 minutes, based on the existing of visible particles or not. • 3.4. After the digestion was completed, undigested tissue mass was filtered out through a […] filter mash. The tissue mass on the filter mash was rinsed into the centrifuge tube with basic medium to reduce cell loss. The resultant was centrifuged at 25° C., 1500 rpm for 4 minutes. • 3.5. […] If there were blood cells, 8 mL blood cell lysate (purchased from Sigma) was added in the resultant and fully mixed, lysed at 4° C. for 20 minutes, with inverting and mixing once during the process. The resultant was centrifuged at 25° C., 1500 rpm for 4 minutes. • 3.6. The supernatant was discarded and 2 mL basic medium was added to resuspend the cells for reserve.
• 4.1 Microscopic observation: a small amount of resuspended cells were plated in a culture dish, and the density and morphology of cancer cells were observed under a microscope (CNOPTEC, BDS400); • 4.2 Viable cell counting: 12 μL of the resuspended cell suspension was fully mixed with 12 μL of trypan blue staining solution (Manufacturer: Sangon Biotech (Shanghai) Co., Ltd.), and then 20 μL of the mixture was added into a cell counting plate (Manufacturer: Countstar, specifications: 50 pieces/box).
The primary liver cancer cells obtained in the above steps were resuspended with pre-cooled DMEM/F12 and counted. The cell density was diluted to 5-10×10^6 cells/mL and 400 μL of the diluted cell suspension was added with an equal volume of Matrigel matrix gel (Corning) and mixed gently and well. Then, the mixture was inoculated at 5 μL/well onto a 96-well plate. The inoculated plate was placed into an incubator for 30 minutes until Matrigel is completely coagulated. Then, the culture mediums as shown in Table 1 that have been come to room temperature in advance were added, respectively, and the culture mediums were renewed every three days for expansion and cultivation. After 7 days, the cultured organoids were photographed and the diameters of the organoids were measured and compiled, so as to compare the promoting effects of various factors on the proliferation of hepatoma organoids. As the experimental control, the basic medium without any additives was used.

[3] = system: hepatoma organoids (samples GL-003, GL-004); test: Effects of different concentrations of factors in the culture medium on proliferation of hepatoma organoids (Example 2); conditions: added to HC-3 medium lacking that factor; organoid diameter ratio to Blank Control after 10 days, FIGS. 1A-1K
Protocol: Primary liver cancer cells were obtained from intraoperative tissue samples (Nos. GL-003, GL-004) in accordance with the method described in Section (2), Example 1, and the organoids were cultured using the culture medium formulations as shown in Table 2 below.
When using the culture medium of Formulation 1, to a 96-well plate inoculated with organoids was added the prepared B27 in addition to the medium of Formulation 1, with 200 μL per well, such that the final concentrations of B27 were 1:25, 1:50 and 1:100, respectively; a well of Blank Control (BC) was set using the medium of Formulation 1. The final concentrations of other factors added in this series of culture mediums were the same as those in HC-3 culture medium. The experiments of Formulations 1-11 below were also conducted in the same way and will not be described in details.
When using the culture medium of Formulation 2, to a 96-well plate inoculated with organoids was added the prepared HGF in addition to the medium of Formulation 2, with 200 μL per well, such that the final concentrations of HGF were 1 ng/ml, 5 ng/mL and 25 ng/mL, respectively; a well of Blank Control (BC) was set using the medium of Formulation 2.
When using the culture medium of Formulation 3, to a 96-well plate inoculated with organoids was added the prepared ITS cell culture additive in addition to the medium of Formulation 3, with 200 μL per well, such that the final concentrations of ITS cell culture additive were 1:300, 1:100 and 1:30, respectively; a well of Blank Control (BC) was set using the medium of Formulation 3.
When using the culture medium of Formulation 4, to a 96-well plate inoculated with organoids was added the prepared Y27632 in addition to the medium of Formulation 4, with 200 μL per well, such that the final concentrations of Y27632 were 3 μM, 10 μM and 30 μM, respectively; a well of Blank Control (BC) was set using the medium of Formulation 4.
When using the culture medium of Formulation 6, to a 96-well plate inoculated with organoids was added the prepared NRG1 in addition to the medium of Formulation 6, with 200 μL per well, such that the final concentrations of NRG1 were 1 ng/ml, 5 ng/ml and 25 ng/ml, respectively; a well of Blank Control (BC) was set using the medium of Formulation 6.
When using the culture medium of Formulation 7, to a 96-well plate inoculated with organoids was added the prepared insulin in addition to the medium of Formulation 7, with 200 µL per well, such that the final concentrations of insulin were 1 μg/mL, 3 μg/mL and 10 μg/mL, respectively; a well of Blank Control (BC) was set using the medium of Formulation 7.
When using the culture medium of Formulation 8, to a 96-well plate inoculated with organoids was added the prepared EGF in addition to the medium of Formulation 8, with 200 μL per well, such that the final concentrations of EGF were 2 ng/ml, 6 ng/ml and 18 ng/ml, respectively; a well of Blank Control (BC) was set using the medium of Formulation 8.
When using the culture medium of Formulation 9, to a 96-well plate inoculated with organoids was added the prepared GlutaMAX in addition to the medium of Formulation 9, with 200 μL per well, such that the final concentrations of GlutaMAX were 1:300, 1:100 and 1:30, respectively; a well of Blank Control (BC) was set using the medium of Formulation 9. […]

Molecule | growth of organoids after drug treatment (photos) [1] | inhibitory effect on the growth of hepatoma organoids (drug inhibition rate) [1] | Level of promoting proliferation [2] | preferable amount in the culture medium for promoting organoid proliferation [3]
CC[C@@]1(O)C[C@H](O[C@H]2C[C@H](N(C)C)[C@H](O[C@H]3C[C@H](O)[C@H](O[C@H]4CCC(=O)[C@H](C)O4)[C@H](C)O3)[C@H](C)O2)c2c(cc3c(c2O)C(=O)c2c(O)cccc2C3=O)[C@H]1C(=O)OC [Aclarubicin] | significantly inhibited | varied significantly |  | 
CC(C)C[C@H](NC(=O)[C@H](Cc1ccccc1)NC(=O)c1cnccn1)B(O)O [Bortezomib] | significantly inhibited | strong inhibitory effects |  | 
Cc1c[nH]c(-c2cnc(NCCNc3ccc(C#N)cn3)nc2-c2ccc(Cl)cc2Cl)n1 [CHIR99021] |  |  | − | 
CN1C(=O)C(c2c(F)cccc2F)N(C)c2nc(Nc3ccc(S(N)(=O)=O)cc3)ncc21 (stereo not shown) [Compound 1, 4-((7-(2,6-Difluorophenyl)-5,8-dimethyl-6-oxo-5,6,7,8-tetrahydropteridin-2-yl)amino)benzsulfamide] |  |  | + | 2.5 to 10 µM
Cc1cccc(-c2nn(C(=S)Nc3ccccc3)cc2-c2ccnc3ccccc23)n1 [Compound A8301] |  |  | − | 
C[C@@H](N)[C@H]1CC[C@H](C(=O)Nc2ccncc2)CC1 [Compound Y27632] |  |  | + | 3 to 30 µM
COc1cccc2c1C(=O)c1c(O)c3c(c(O)c1C2=O)C[C@@](O)(C(=O)CO)C[C@@H]3O[C@H]1C[C@H](N)[C@H](O)[C@H](C)O1 [Doxorubicin] |  | no inhibitory effect |  | 
Oc1ccc(-c2nc(-c3ccncc3)c(-c3ccc(F)cc3)[nH]2)cc1 [SB202190] |  |  | − | 
C[C@@H]1C[C@H]2[C@@H]3CCC4=CC(=O)C=C[C@]4(C)[C@@]3(F)[C@@H](O)C[C@]2(C)[C@@]1(O)C(=O)CO [dexamethasone] |  |  |  | 0.1 to 1 µM
basic fibroblast growth factor, bFGF: growth factor medium additive, supplier R&D |  |  | − | 
epidermal growth factor, EGF: growth factor medium additive, supplier R&D (NSDSECPLSHDGYCLHDGVCMYIEALDKYACNCVVGYIGERCQYRDLKWWELR; Epidermal growth factor; UniProt P01133 971-1023, looked up) |  |  | + | 2 to 18 ng/mL
hepatocyte growth factor, HGF: growth factor medium additive, supplier R&D |  |  | + | 
insulin: medium additive, supplier Peprotech |  |  | + | 1000 to 10000 ng/mL
